{"source": "patent US20080242594A1", "about": "“Methods for Promoting Stem Cell Proliferation and Survival” (priority 2005, published 2008)", "key": {"Adult SVZ CNS SC": {"tested_on": "Adult SVZ CNS SC", "assay": "Multi-potentiality of adult CNS stem cells after mitogen withdrawal", "assay_type": "cell-based, rat", "settings": "FGF2 20 ng/ml 7 days, mitogen withdrawal 7 days", "experimental": "Very little protein or mRNA were detected outside the SVZ (FIG. 4g). Adult CNS stem cells can be cultured as a monolayer in vitro (FIG. 4h) and they show similar responses to extracellular signals that regulate stem cell differentiation upon withdrawal of the mitogen that sustains the undifferentiated state (Johe et al., Genes Dev 10:3129-40, 1996). To ask if Notch activation promotes survival in rat adult SVZ cultures, isolated cells were grown in the presence of FGF2 with and without Delta-4 for one week. […] When FGF2 was withdrawn for a week, cells at clonal density generated all three CNS lineages (FIG. 8C, Table 4)."}, "[1]": {"tested_on": "E13.5 cortical stem cells", "assay": "Differentiation potential of embryonic CNS stem cells after Notch ligand treatment", "assay_type": "cell-based, mouse", "settings": "5 days treatment in bFGF2 20 ng/ml, then mitogen withdrawal (WD) 3 days", "experimental": "To test whether Notch activation promoted differentiation or fate commitment, these cultures were treated with either Jagged-1 or Delta-4 for 5 days, […] The proportion of cells expressing genes characteristic of the stem or differentiated cells was determined (FIG. 8A).\nThe multipotentiality of treated cells was tested more rigorously by plating them at clonal density (50 cells/cm^2). Following five days of Delta-4+FGF2 treatment and 5 days of differentiation, 65% of the clones contained GFAP+, TUJ1+, and CNPase+ cells (FIG. 8B)."}, "[2]": {"tested_on": "spontaneously hypertensive rats (SHR) with permanent middle cerebral artery occlusion", "assay": "Focal ischemia (PMCAO) in rats with intraventricular infusion", "assay_type": "in vivo, rat", "settings": "stroked animals", "experimental": "For the induction of focal ischemia in rats, male spontaneously hypertensive rats (SHR) underwent permanent middle cerebral artery occlusion (PMCAO) (Leker et al., Stroke 33:1085-92, 2002). This is a highly reproducible model of focal irreversible cerebral ischemia that results in isolated fronto-parietal cortical injury. For motor disability evaluations, animals were analyzed with a standard motor disability protocol (Leker et al., Stroke 34:2000-6, 2003).\n(§1) Immuno-positive cells were analyzed by confocal microscopy counted using a non-biased system on slides obtained from homologous coronal slices containing the infarct of each animal at the position between +0.2 and −3.8 mm from the center of the bregma according to stereotaxic coordinates. Cells were enumerated in […] regions of interest, on both the ipsilateral and contralateral hemispheres (to cannula, or cannula and ischemic focus): subventricular zone (SVZ), corpus callosum and white matter and the peri-infarct cortex.\nThere is growing evidence for an endogenous repair process following injury to the telencephalon. […]\nTreatment with Notch ligand with or without FGF2 increased the number of cells that were BrdU labeled in the days immediately following the injury and these cells survived for an additional 5 weeks (FIG. 6d). […] The behavior of animals in the 45 day groups were assessed at the indicated time points."}, "HSF6 hES cells": {"tested_on": "HSF6 hES cells", "assay": "hES single cell plating efficiency, HSF-6", "assay_type": "cell-based, human", "settings": "singly dissociated cells on MEFs, treated daily for one week", "text": "The human ES cell lines HSF-6 (University of California, San Francisco; NIH # UC06, Passage 38-120) and H1 and H9 (WiCell Research Institute, NIH # WA01 and […]) were maintained on mouse embryonic fibroblasts (MEF) according to the suppliers' protocols. Immunocytochemistry and FACS analysis for the expression of Oct4 and SSEA4 and SKY karyotyping established that the starting cells are undifferentiated and have a normal set of chromosomes. For single cell survival experiments, hES colonies were harvested after treatment with 1.5 mg/ml collagenase type IV (Invitrogen), separated from the MEF feeder cells by repeated washing by gravity, gently triturated to break up colonies into small aggregates, further dissociated into a single cell solution by trypsination (0.05% trypsin/0.04% EDTA) and transferred on MEF feeder cells at a density of 10000 cells/ml. Oct-4 positive colonies were counted six days after plating. […]\nThe pro-survival effects of activation of Notch and inhibition of JAK was tested on HSF-6 (NIH code UC06, http://escell.ucsf.edu), H1 (NIH code WA01, www.wicell.org) and H9 (NIH code WA09, www.wicell.org) hES cells. Singly dissociated hES cells were plated on mouse embryo fibroblasts (MEFs), treated daily for one week and colony numbers counted. […]"}, "adult rats": {"tested_on": "adult rats", "assay": "Intraventricular infusion in normal adult rats, BrdU labeled cells", "assay_type": "in vivo, rat", "experimental": "In-vivo Experiments: All drugs were infused over one week using an Alzet osmotic pump (model 2001 delivering at a rate of 1 μl/hr for seven days). Briefly, an intracerebral cannula connected to the pump was inserted into the right lateral ventricle using the following stereotaxic coordinates: bregma AP +0, Lateral −1.5 mm dorso-ventral 3.3 mm. Animals received IP injection of the tracer BrdU (50 mg/kg) every 12 hours for 5 days beginning on day one post-operatively to label dividing cells.\nas §1\nThe effect of intraventricular administration of Delta-4 was studied in adult rats. As in other tissues, the numbers of stem cells in the adult CNS are precisely controlled. […] In vivo manipulations were designed to ask if Notch ligands can act alone or substantially alter the effect of FGF2 on the numbers of proliferating cells in the SVZ of the normal brain. Animals (N=5-6 per treatment) were fitted with a mini-osmotic pump administering artificial cerebrospinal fluid (ACSF, vehicle), FGF2, Delta-4, or a combination FGF2+Delta-4 for one week into the ventricles of three-month old rats. Animals were also given twice-daily injections of bromodeoxyuridine (BrdU) from post-op days two to six to label cells generated during this time window. Two groups of animals were analyzed at day 7 and day 45 relative to the initiation of protein delivery. Delta-4 doses were chosen to provide a roughly equal concentration in the rat adult cerebrospinal fluid as in the cell culture medium of our in vitro experiments."}, "IGF1/insulin receptor": {"tested_on": "IGF1/insulin receptor", "assay": "IGF1/insulin receptor phosphorylation in foetal NSC cultures", "assay_type": "cell-based, mouse", "experimental": "Specifically, D114 induced the phosphorylation of IGF1/insulin receptor. Peak phosphorylation occurred at 2-5 minutes.\n(§2) It was determined that insulin facilitates Notch cleavage using immunocytochemical detection."}, "Notch1": {"tested_on": "Notch1", "assay": "Notch activation (Notch1IC / Notch ICD) immunocytochemical detection", "assay_type": "cell-based, mouse", "text": "Antibodies were used that specifically bind: Notch1IC (Chemicon, 5352), GFP (Molecular Probes, A11122), Oct3/4 (Santa Cruz, sc-5279), SSEA1 and SSEA4 (Developmental Studies HybridomaBank), Tra-1-60 (Chemicon, MAB4360), Tra-1-81 (Chemicon, MAB4381), human nestin (Chemicon, MAB5326), Sox-1 (Gift from Dr. R Lovell-Badge), TH (Pel-Freez, P40101-0), Tuj1 (Covance, MMS-435P), rat nestin (McKay Lab), GFAP (Dako, z0334), CNPase (Chemicon, MAB326), BrdU (Accurate, H5903), DCX (Santa Cruz, sc-8066), Sox2 (R&D, MAB2018), Hu (Molecular Probes, A21271).\nTo assay for Notch activation, cultures were treated with the Notch ligands for 1 hour and Notch1 activation was detected by immunocytochemical staining of Notch1IC (FIG. 1b).\nas §2"}, "[3]": {"tested_on": "mouse fetal central nervous system stem cell cultures", "assay": "Survival of fetal CNS stem cell cultures with insulin and Dll4", "assay_type": "cell-based", "experimental": "(§3) As there was a tight correlation between the Notch survival pathway and Hes3, it was investigated as to whether Hes3 is a mediator of the Notch pro-survival signalling. It was determined that both insulin and Notch activation promote the survival of foetal and adult neural stem cell cultures and their effects are additive (Tables 8-9)."}, "STAT3": {"tested_on": "STAT3", "assay": "STAT3 phosphorylation (Ser727, Tyr705) immunoblot in CNS stem cells", "assay_type": "cell-based, mouse", "text": "Ligands that activate JAK/STAT signaling promote astrocytic differentiation of CNS stem cells (Johe et al., Genes Dev 10:3129-40, 1996; Raj an et al., J Neurosci 18:3620-9, 1998; Bonni et al., Science 278:477-83, 1997; Song et al., Nat Neurosci 7:229-35, 2004; He et al., Nat Neurosci 8:616-625, 2005). When applying CNTF to CNS stem cells it was noted that low concentrations of CNTF stimulated survival but not expression of astrocyte specific genes. This is consistent with previous observations of Akt phosphorylation downstream of gp130 activation (Taga et al., Annu Rev Immunol 15:797-819, 1997). […] At high concentrations (20 ng/ml) the phosphorylation of Tyr705 can be blocked by an inhibitor of JAK while allowing a CNTF-induced increase in Ser727 phosphorylation (FIG. 2B) (Thompson et al., Bioorg Med Chem Lett 12:1219-23, 2002).\nCNTF was used as a positive control; CNTF, induced the phosphorylation on both sites. With both CNTF and Notch activation, phosphorylation peaked at around 30 min. STAT3 phosphorylation on Ser727 following Notch activation was sensitive to the γ-secretase inhibitor DAPT (FIG. 2e). […] In contrast to CNTF, no Tyr705 phosphorylation was detected at any of the doses of Notch receptor ligands.\nIt was determined that insulin also maintains phosphorylation of serine 727 in STAT3 in foetal neural stem cell cultures."}, "[4]": {"tested_on": "rat adult subventricular zone central nervous system stem cell cultures", "assay": "Survival of adult SVZ CNS stem cell cultures with insulin and Dll4", "assay_type": "cell-based", "experimental": "as §3"}, "[5]": {"tested_on": "adult rat subventricular zone (SVZ)", "assay": "Dividing (BrdU+) cells in SVZ after single lateral ventricle injection", "assay_type": "in vivo", "settings": "BrdU for 3 days, sacrificed on the 5th day", "experimental": "In vivo, Notch and insulin also increase the number of dividing cells in the adult rat subventricular zone (SVZ) 5 days after a single injection It was determined that Notch and insulin co-operate to promote new (BrdU+) cells in vivo. Specifically, the reagents infused in the lateral ventricle of adult rats as a single injection. The rats were then given BrdU for 3 days and sacrificed on the 5th day (Table 10)."}, "[6]": {"settings": "Insulin withdrawal, 2 days and then treat for 1 h"}}, "data": [{"substance": "FGF2: fibroblast growth factor FGF2 (233-FB) from R&D", "values": [{"measurement": "% Glia (GFAP)", "setting": "Adult SVZ CNS SC", "result": "51.8 ± 10.3", "unit": "%"}, {"measurement": "% Neurons (TUJ1)", "setting": "Adult SVZ CNS SC", "result": "43.3 ± 10.7", "unit": "%"}, {"measurement": "% Oligodendrocytes (CNPase)", "setting": "Adult SVZ CNS SC", "result": "9.4 ± 2.6", "unit": "%"}, {"measurement": "% Glia (GFAP)", "setting": "[1]", "result": "49.53 ± 4.79", "unit": "%"}, {"measurement": "% Neurons (TUJ1)", "setting": "[1]", "result": "42.37 ± 6.85", "unit": "%"}, {"measurement": "% Oligodendrocytes (CNPase)", "setting": "[1]", "result": "9.12 ± 2.82", "unit": "%"}, {"measurement": "size of the injury", "setting": "[2]", "result": "21.0%±3.5 % of hemisphere volume"}, {"measurement": "plating efficiency relative to FGF2 controls", "setting": "HSF6 hES cells", "result": "100%±15.35"}, {"measurement": "number of proliferating cells / BrdU incorporation", "setting": "adult rats; day 7, contralateral site", "result": "no significant effect over vehicle"}, {"measurement": "number of BrdU labeled cells in SVZ, corpus callosum and cortex", "setting": "adult rats; day 7, hemisphere ipsilateral to the cannula", "result": "increased the number of BrdU labeled cells"}]}, {"substance": "Ins: insulin in the culture medium or infused", "values": [{"measurement": "pIGF1 (19H7)", "setting": "IGF1/insulin receptor; +Ins, no withdrawal", "result": "High"}, {"measurement": "pIGF1 (3021)", "setting": "IGF1/insulin receptor; +Ins, no withdrawal", "result": "High"}, {"measurement": "pIGF1 (19H7)", "setting": "IGF1/insulin receptor; [6]", "result": "High"}, {"measurement": "pIGF1 (3021)", "setting": "IGF1/insulin receptor; [6]", "result": "High"}, {"measurement": "Notch ICD", "setting": "Notch1; +Ins, no withdrawal", "result": "High"}, {"measurement": "Notch ICD", "setting": "Notch1; [6]", "result": "High"}, {"measurement": "Cell #", "setting": "[3]", "result": "Medium"}, {"measurement": "STAT3-S727", "setting": "STAT3; +Ins, 2 days", "result": "High"}, {"measurement": "STAT3-Y705", "setting": "STAT3; +Ins, 2 days", "result": "No signal"}, {"measurement": "STAT3-S727", "setting": "STAT3; −Ins, 2 days→ +Ins, 1 hour", "result": "High"}, {"measurement": "STAT3-Y705", "setting": "STAT3; −Ins, 2 days→ +Ins, 1 hour", "result": "No signal"}, {"measurement": "Cell #", "setting": "[4]", "result": "Medium"}, {"measurement": "Cell #", "setting": "[5]", "result": "Medium"}]}]}
